{"source": "ChEMBL document CHEMBL1201862", "about": "“PubChem BioAssay data set” (2004)", "test_in_all_cases": "inhibition of tumour cell growth, NCI panel, 48 h", "key": {"786-0": {"test_system": "786-0"}, "A549": {"test_system": "A549"}, "BT-549": {"test_system": "BT-549"}, "CAKI-1": {"test_system": "CAKI-1"}, "CCRF-CEM": {"test_system": "CCRF-CEM"}, "COLO 205": {"test_system": "COLO 205"}, "DU-145": {"test_system": "DU-145"}, "EKVX": {"test_system": "EKVX"}, "HCT-116": {"test_system": "HCT-116"}, "HCT-15": {"test_system": "HCT-15"}, "HL-60": {"test_system": "HL-60"}, "HOP-92": {"test_system": "HOP-92"}, "HT-29": {"test_system": "HT-29"}, "IGROV-1": {"test_system": "IGROV-1"}, "K562": {"test_system": "K562"}, "KM12": {"test_system": "KM12"}, "LOX IMVI": {"test_system": "LOX IMVI"}, "M14": {"test_system": "M14"}, "MDA-MB-231": {"test_system": "MDA-MB-231"}, "MDA-MB-435": {"test_system": "MDA-MB-435"}, "MDA-N": {"test_system": "MDA-N"}, "MOLT-4": {"test_system": "MOLT-4"}, "NCI-H226": {"test_system": "NCI-H226"}, "NCI-H23": {"test_system": "NCI-H23"}, "NCI/ADR-RES": {"test_system": "NCI/ADR-RES"}, "OVCAR-4": {"test_system": "OVCAR-4"}, "OVCAR-5": {"test_system": "OVCAR-5"}, "OVCAR-8": {"test_system": "OVCAR-8"}, "PC-3": {"test_system": "PC-3"}, "RPMI-8226": {"test_system": "RPMI-8226"}, "RXF 393": {"test_system": "RXF 393"}, "SF-539": {"test_system": "SF-539"}, "SK-MEL-28": {"test_system": "SK-MEL-28"}, "SK-MEL-2": {"test_system": "SK-MEL-2"}, "SK-MEL-5": {"test_system": "SK-MEL-5"}, "SN12C": {"test_system": "SN12C"}, "SNB-19": {"test_system": "SNB-19"}, "SNB-75": {"test_system": "SNB-75"}, "SR": {"test_system": "SR"}, "SW-620": {"test_system": "SW-620"}, "T47D": {"test_system": "T47D"}, "U-251": {"test_system": "U-251"}, "UO-31": {"test_system": "UO-31"}}, "note": "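Tested at 5 concentrations; 48 h exposure; 96-well plates; endpoints linearly interpolated, else capped at highest concentration. Here, GI50 denotes the concentration required for 50% inhibition of growth.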 The source made the active and inactive calls. Cut-off read from the data, not from the text of the source: active = GI50 up to about 1.1 µM and inactive = higher.", "data": [{"compound": "C=CCC1(C#N)C(=S)NC2=C(C(=O)CC(C)(C)C2)C1c1ccccc1", "note": "(stereo not drawn)", "values": [{"measurement": "GI50", "setting": "786-0", "result": "35.9 µM (inactive)"}, {"measurement": "GI50", "setting": "A549", "result": "33.8 µM (inactive)"}, {"measurement": "GI50", "setting": "BT-549", "result": "66.7 µM (inactive)"}, {"measurement": "GI50", "setting": "CAKI-1", "result": "74.3 µM (inactive)"}, {"measurement": "GI50", "setting": "CCRF-CEM", "result": "83.6 µM (inactive)"}, {"measurement": "GI50", "setting": "COLO 205", "result": "> 100 µM (inactive)"}, {"measurement": "GI50", "setting": "DU-145", "result": "19.2 µM (inactive)"}, {"measurement": "GI50", "setting": "EKVX", "result": "19.2 µM (inactive)"}, {"measurement": "GI50", "setting": "HCT-116", "result": "59.4 µM (inactive)"}, {"measurement": "GI50", "setting": "HCT-15", "result": 70.1, "unit": "µM"}, {"measurement": "GI50", "setting": "HL-60", "result": "> 100 µM (inactive)"}, {"measurement": "GI50", "setting": "HOP-92", "result": "35.1 µM (inactive)"}, {"measurement": "GI50", "setting": "HT-29", "result": "34.6 µM (inactive)"}, {"measurement": "GI50", "setting": "IGROV-1", "result": "55.1 µM (inactive)"}, {"measurement": "GI50", "setting": "K562", "result": "82.2 µM (inactive)"}, {"measurement": "GI50", "setting": "KM12", "result": "32.7 µM (inactive)"}, {"measurement": "GI50", "setting": "LOX IMVI", "result": "68.9 µM (inactive)"}, {"measurement": "GI50", "setting": "M14", "result": "59.8 µM (inactive)"}, {"measurement": "GI50", "setting": "MDA-MB-231", "result": "36.7 µM (inactive)"}, {"measurement": "GI50", "setting": "MDA-MB-435", "result": "33 µM (inactive)"}, {"measurement": "GI50", "setting": "MDA-N", "result": "70.6 µM (inactive)"}, {"measurement": "GI50", "setting": "MOLT-4", "result": "74.1 µM (inactive)"}, {"measurement": "GI50", "setting": "NCI-H226", "result": "71.4 µM (inactive)"}, {"measurement": "GI50", "setting": "NCI-H23", "result": "39.9 µM (inactive)"}, {"measurement": "GI50", "setting": "NCI/ADR-RES", "result": "56.9 µM (inactive)"}, {"measurement": "GI50", "setting": "OVCAR-4", "result": "31 µM (inactive)"}, {"measurement": "GI50", "setting": "OVCAR-5", "result": "> 100 µM (inactive)"}, {"measurement": "GI50", "setting": "OVCAR-8", "result": "24 µM (inactive)"}, {"measurement": "GI50", "setting": "PC-3", "result": "32.2 µM (inactive)"}, {"measurement": "GI50", "setting": "RPMI-8226", "result": "52.5 µM (inactive)"}, {"measurement": "GI50", "setting": "RXF 393", "result": "42.7 µM (inactive)"}, {"measurement": "GI50", "setting": "SF-539", "result": "77.8 µM (inactive)"}, {"measurement": "GI50", "setting": "SK-MEL-28", "result": "61.8 µM (inactive)"}, {"measurement": "GI50", "setting": "SK-MEL-2", "result": "46.8 µM (inactive)"}, {"measurement": "GI50", "setting": "SK-MEL-5", "result": "45.6 µM (inactive)"}, {"measurement": "GI50", "setting": "SN12C", "result": "38.5 µM (inactive)"}, {"measurement": "GI50", "setting": "SNB-19", "result": "31 µM (inactive)"}, {"measurement": "GI50", "setting": "SNB-75", "result": "27 µM (inactive)"}, {"measurement": "GI50", "setting": "SR", "result": "50.6 µM (inactive)"}, {"measurement": "GI50", "setting": "SW-620", "result": "> 100 µM (inactive)"}, {"measurement": "GI50", "setting": "T47D", "result": "27.3 µM (inactive)"}, {"measurement": "GI50", "setting": "U-251", "result": "30.9 µM (inactive)"}, {"measurement": "GI50", "setting": "UO-31", "result": "36.4 µM (inactive)"}]}]}
